Here are results for three compounds from patent US20260325643A1, “METHOD AND PHARMACEUTICAL COMPOSITION FOR VISIBLE LIGHT-INDUCED CORNEAL CROSSLINKING WITH RUTHENIUM COMPOUNDS FOR THE TREATMENT OF EYE DISORDERS” (KOC UNIVERSITESI, priority 2022, published 2026).

For series [1], the system named is human corneal epithelial cells (HCECs) and limbal mesenchymal stem cells (LMSCs). Nature of the series: Cell viability / cytotoxicity, HCECs and LMSCs taken together. In kind it is cell-based. Conditions: Ruthenium or/and SPS. An excerpt:
Furthermore, the cytotoxic effects of Ruthenium and SPS compound on human corneal epithelial cells (HCECs) and limbal mesenchymal stem cells (LMSCs) were investigated to determine the ruthenium concentration and time needed for the cross-linking process. The relative viabilities of cells were detected by CellTiter-Glo® Luminescent Cell Viability Assay (Promega, Mannheim, Germany) detected the relative viabilities of cells, which is a method used to detect the number of viable cells depending on the amount of ATP in alive cells. […] (FIGS. 3A-3B)

Series [2] has as its system LMSCs and HCECs. Nature of the series: Annexin V-FITC/PI flow cytometry. Type of series: cell-based, human. Conditions: 1 hour treatment; compared with ruthenium-SPS treated cells. The protocol:
The effects of [Ru(bpy)3]^2+ and SPS solutions on cell viability and apoptosis were examined by Annexin-V/propidium iodide (PI) staining in flow cytometry. LMSCs and HCECs (10^5 cells/well) were plated in 6-well culture dishes. [Ru(bpy)3]^2+ and SPS in various concentrations (1 mM and 10 mM) were added to the cell culture medium. The cells were incubated for 1 hour at 37 °C. After the treatment with the solutions, the cells were collected and washed with PBS at 4 °C. The cells were resuspended in 1× binding buffer at a 1×10^5 cells/ml density. 100 μl of the cell suspension were labeled with 2.5 μl of fluorochrome-conjugated Annexin V and 5 μl of PI according to the manufacturer's protocol (BioLegend, San Diego, CA, USA) and analyzed by using a flow cytometer (Attune N. T Flow Cytometer, Thermo Fisher Scientific, Waltham, MA, USA).
Annexin V-FITC and propidium iodide staining provide sensitive outcomes for detecting cellular apoptosis. While annexin V-FITC binds on the surface of cells that undergo programmed cell death, PI detects necrotic or late apoptotic cells characterized by loss of plasma and nuclear membrane integrity. Cells treated with [Ru(bpy)3]^2+ and/or SPS for 1 hour were harvested after treatment and stained with Annexin V-FITC and PI.

For series [3], the system named is cornea. The note with it: background, cited from earlier work; for hardness / stiffness of cross-linked cornea: Rose Bengal/Green Light (532 nm) or riboflavin/UV-A.
The test system of series [4] is bovine corneas. Nature of the series: Corneal optical transparency and Lambert-Beer penetration distance. As to the method:
The standard protocol for corneal crosslinking can only be applied in cases with a corneal thickness above 400 μm. When applied to thinner corneas, UV-A beam reaches the corneal endothelial cells resulting in endothelial toxicity and corneal edema. For this purpose, the Lambert-Beer formula was applied for optical transmittance results of both photoinitiator solutions (FIG. 6C). Corneal light transmittance was then calculated with the Lambert-Beer formula: […]
In this formula, A represents the optical absorbance of the sample, ε represents the molar attenuation coefficient of the photoinitiator, c is the concentration of the photoinitiator, and l is the total optical path length of the light. For these calculations, molar attenuation coefficients for each photoinitiators (10066 M^−1 cm^−1 for riboflavin and 14,600 M^−1 cm^−1 for tris(2,2′-bipyridyl)ruthenium(II)) obtained from previous literature.[15, 16] […]
Corneal optical transparencies were measured in corresponding light wavelengths for each experimental group. For the 2 mM riboflavin-based crosslinked corneas, average optical transparency in 365 nm was measured as 0.713±0.222. In the same conditions, the average optical transparency for 1 mM ruthenium-based crosslinked corneas was measured as 0.724±0.050 in 430 nm light wavelength, which is correlated with the riboflavin-based CXL procedure. […]

The test system of series [5] is bovine corneas. Put plainly: Rheological measurements of crosslinked corneas (time sweep). The note with it: 2 mM riboflavin, UV-A 365 nm, after 30 min. As to the method: (§1) For biomechanical experiments, bovine corneas were used. First the corneal epithelia were removed with a scalpel blade and 8 mm central corneal buttons were isolated from bovine eyes with a trephine blade (Katena, Parsippany, NJ, USA). After that, corneal buttons separated into three different experimental groups: • Ruthenium (Ru)-Sodium persulfate (SPS)/visible light, • Riboflavin/UV-A light, and • Control groups.
[Ru(bpy)3]^2+ and SPS solution was prepared in PBS via dissolving Tris(2,2′-bipyridyl)dichlororuthenium(II) hexahydrate (544981, Sigma-Aldrich, MO, USA) and sodium persulfate (216232, Sigma-Aldrich, MO, USA). Ru-SPS solution was prepared in two different concentrations: 0.001 M (1 mM) and 0.0001 M (0.1 mM) was dropped on corneal buttons and the samples were incubated for 5 min for the samples in the Ru-SPS experimental group. Then all solutions were removed, and 430 nm visible light (3 mW/cm^2) was applied to the samples for 40 min. […]
Rheological measurements were carried out in time sweep mode with 1 Hz frequency, 1% strain using TA Instruments AR/DHR series rheometer (New Castle, DE) equipped with two different light sources: visible light ([…]) and UV-A light (λ=365 nm). […] Storage and loss moduli profiles were recorded as a function of time continuously for 40 min at ambient conditions. […]

Series [6] relates to bovine corneas. Put plainly: Uniaxial stress-strain test of corneal strips. The protocol: as §1
(§2) [Ru(bpy)3]^2+ and SPS solution was prepared in PBS via dissolving Tris(2,2′-bipyridyl)dichlororuthenium(II) hexahydrate (544981, Sigma-Aldrich, MO, USA) and sodium persulfate (216232, Sigma-Aldrich, MO, USA). Ru-SPS solution was prepared in two different concentrations: 0.001 M (1 mM) and 0.0001 M (0.1 mM) was dropped on corneal buttons and the samples were incubated for 5 min for the samples in the Ru-SPS experimental group. Then all solutions were removed, and 430 nm visible light (3 mW/cm^2) was applied to the samples for 40 min. To mimic the standard CXL corneal collagen crosslinking procedure for the riboflavin experimental group, 0.002 M (2 mM) riboflavin 5′-monophosphate solution (18167, Cayman Chemical, MI, USA) was dropped on corneal buttons and the samples were incubated for 5 min. Then riboflavin solution was removed, and 365 nm visible light (3 mW/cm^2) applied to the cornea samples for 40 min. No solution or light was applied to the corneas in the control group.
The stress-strain test was performed on a full-thickness minus the epithelium corneal strips dissected from the bovine corneas. The mechanical properties of all the samples were determined using force and displacement measurements. The initial cross-sectional area and the corresponding force measurements of each test sample were used to calculate the engineering stress. The maximum displacement at the breakage point of each sample was used to estimate the change in the length of each sample. This change in the length was related nominally to the initial length of the corresponding test sample to calculate the engineering strain. The modulus of elasticity and the ultimate tensile strength of each sample was then estimated by the engineering stress-strain curves. The ultimate tensile strength was defined as the peak value of stress on the stress-strain curve before the breakage point of the sample when being stretched. The linear regression analysis between the zero point and the point that equals 70% of the maximum stress for each sample was used to compute the modulus of elasticity. The modulus of elasticity is a material-dependent property such that it depends upon the internal structure and the bond strength between the atoms of each sample. Therefore, the modulus of elasticity remained similar for one sample type; however, it differed for other sample types. […]

For series [7] the following is noted: obtained from previous literature [15, 16]; cited from earlier work.
For series [8], the system named is bovine corneas. Put plainly: UV & visible spectrophotometry of corneas. The note with it: PBS, UV (300-400) and visible (400-800); different crosslinking procedures. As to the method:
Optical transmission and absorption tests were performed on de-epithelized bovine corneas for the UV and visible light spectrum. Control and crosslinked corneas were submerged in PBS, and their optical transmission was assessed using a UV-Vis. Spectrometer (Edinburgh Instruments Spectrofluorometer FS5). Transmittance spectra (% T) were collected from 300 to 800 nm at 1 nm increments. […] The results are illustrated in FIGS. 7A-7B.

Series [9] deals with bovine corneas. Nature of the series: Osmotic stress (swelling) test. The note with it: 15% dextran-500 PBS overnight, then three hours in distilled water. As to the method: as §1
as §2, with “control group. […]” for “control group.”

In series [10] the test system is bovine corneas. Put plainly: Enzymatic digestion (collagenase) test of corneas. The note with it: 24 hours of digestion by collagenases. The protocol:
as §1
as §2, with “control group. […]” for “control group.”

Take `O=S(=O)([O-])OOS(=O)(=O)[O-].[Na+].[Na+]` [SPS, sodium persulfate]: in series [1], the “cytotoxicity influence on viability of cells” value was “dose-dependent cytotoxicity”. For the same compound, the “cell death (Annexin V-FITC/PI)” value in [2] is “higher degree of cell death than ruthenium-SPS treated cells”.
Turning to `O=C1OC2(c3cc(I)c(O)c(I)c3Oc3c2cc(I)c(O)c3I)c2c(Cl)c(Cl)c(Cl)c(Cl)c21` [Rose Bengal], the “hardness / stiffness of cross-linked cornea” value in series [3] was “increased hardness”. Further, the “depth of cross-linking effect” value in [3] (Rose Bengal/Green Light (532 nm)) was “more superficial effect”.
Regarding `Cc1cc2nc3c(=O)[nH]c(=O)nc-3n(C[C@H](O)[C@H](O)[C@H](O)COP(=O)(O)O)c2cc1C` [riboflavin, riboflavin 5′-monophosphate], in series [3], the “hardness / stiffness of cross-linked cornea” value was “increased corneal stiffness”. Moreover, in series [3] (riboflavin/UV-A), the “healing time of corneal haze, in some eyes” value was 6-12 months. This compound gave an average optical transparency in series [4] (2 mM riboflavin-based crosslinked corneas, 365 nm) of 0.713±0.222. The “mean distance traveled in the bovine cornea” value in series [4] (Lambert-Beer formula applied to optical transmittance results) turned out to be 719 μm. Further, the average storage modulus in [5] is given as 92.88 kPa. Further, in series [6] (from modulus of elasticity), the “stiffness compared to control” value is reported as “overall increasing stiffness”. Besides, in series [6] (riboflavin-treated), the “increase of modulus of elasticity vs control” value is on record as “approximately 16%” and the “increase of ultimate tensile strength vs control” value is given as “approximately 16%”. Moreover, the “strain compared to control” value in [6] (stress-strain test) is “decreasing strain trend”. Also, the molar attenuation coefficient in [7] was 10066 M⁻¹ cm⁻¹. For the same compound, in series [8], the “optical absorbance of corneas, change after crosslinking” value was “did not change significantly” and the “optical transmission of corneas, change after crosslinking” value is “did not change significantly”. Moreover, the “swelling vs normal corneas” value in [9] is “less swelling”. In [10], the “resistance to enzymatic digestion” value was “digested entirely after 24 hours”.
